From patent US6407135B1, “Conjugates of dithiocarbamates with pharmacologically active agents and uses therefor” (Medinox, Inc., priority 1997, dated 2002) come the findings set out here.

The subject of this test is Lewis male rats. Conditions: high doses, oral daily days 5-8 and 11-14; naproxen 10 mg/kg, conjugate 18 mg/kg.

`COc1ccc2cc([C@H](C)C(=O)O)ccc2c1` [Naproxen, (S)-(+)-methoxy-α-methyl-2-naphthaleneacetic acid]: the “Reduction of swelling compared to control by day 15” value is on record as “approximately 70%”.
